Active and inactive are the calls of the source. The calls are words filed in the database; no cut-off is given here.

Data set [1] has as its target Bromodomain-containing protein 4 (Homo sapiens, UniProt O60885). Kind of data set: Inhibition of human recombinant BRD4 BD2 (349 to 460 residues) extracted from Escherichia coli BL21 (DE3) at 10 uM incubated for 2 hrs by TR-FRET assay relative to control. (In TR-FRET formats the signal depends on donor and acceptor labels being close together.)
A further data set has as its system Mus musculus. Kind of data set: Antiinflammatory activity against LPS-induced C57BL/6 mouse acute inflammation model assessed as reduction of renal injury at 100 mg/kg, po pre-administered for 2 hrs followed by LPS stimulation for 6 hrs. Type of data set: functional, organism-based. To be noted: time 8.0 hrs.
The next data set has as its system THP-1. Kind of data set: Anti-inflammatory activity in human THP-1 cells assessed as inhibition of LPS-induced TNF-alpha expression preincubated with compound for 2 hrs followed by LPS stimulation and measured after 6 hrs by RT-qPCR analysis. The note with it: dose 2.5-20 µM, time 8.0 hrs. Type of data set: functional, cell-based. Background: Real-time PCR tracks product formation cycle by cycle.

Data set [2] is described as follows: Toxicity in C57BL/6 mouse effect on kidney at 100 mg/kg, po measured after 24 hrs. Type of data set: organism-based. To be noted: in vivo.
The nature of data set [3]: Toxicity in C57BL/6 mouse effect on body weight at 100 mg/kg, po measured after 24 hrs. Type of data set: organism-based. To be noted: in vivo.

`COc1ccc(/C=C/c2nc3cc(OC)cc(OC)c3c(=O)[nH]2)cc1`: in data set [1], the inhibition stood at 89%. Moreover, the result with Mus musculus was Active. Further, the Activity result in the data set on THP-1 was “Dose-dependent-effect”; in data set [2], “Non-toxic”; in data set [3] it was “Non-toxic”.

A word on the inhibition: it is the change of the read-out against control, counted positive when it falls.

(Values after ChEMBL document CHEMBL6121006, “Marine natural product-inspired discovery of novel BRD4 inhibitors with anti-inflammatory activity” (Eur J Med Chem, 2025).)
